From patent US20260258032A1, “TYROSINE KINASE 2 INHIBITORS AND USES THEREOF” (BIOGEN MA INC., priority 2022, published 2026) come the findings set out here.

For orientation: IC50 means the point on the concentration scale where inhibition reaches its midpoint. Read a high IC50 as weaker potency in that assay.

The structures appear in SMILES notation. Where a name gives a salt, the structure may show the parent alone.

Assay [1] addresses T1, JH2 domain of human Tyk2 (Homo sapiens, UniProt P29597).
T1 construct: 10×His-tagged TYK2 JH2 domain (amino acid 575-876)
The assay is described as follows: JH2 biochemical assay (TR-FRET probe displacement). The format is binding. To be noted: JH2 biochemical assay. In outline:
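A probe-displacement TR-FRET readout: compounds, tested in 3-fold, 10-point dilutions starting at […], compete with 2 nM tracer for 2 nM His-tagged JH2 (residues 575-876) detected by 0.1 nM Tb-anti-His over 60 min. IC50 comes from 4-parameter fits of normalized 520/495 nm ratios.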
A general note: Time-resolved FRET reads energy transfer from a long-lived donor to a nearby acceptor.

Assay [2] deals with Tyk2 kinase activity on STAT4. Nature of the assay: pSTAT4 cell assay (MSD, NK92 cells). To be noted: compounds 1 hr, stimulated 15 minutes. It counts as cell-based. In outline: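 IC50 values come from 4-parameter logistic fits of normalized percent activity. Phospho-STAT was read by MSD (anti-STAT4 antibodies) in NK92 lysates after a 15 min stimulation with 30 ng/mL IL2. The serum-starved cells had been given compound for 1 h (10 points, four-fold, top 10 μM).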

T1 sequence (P29597 575-876): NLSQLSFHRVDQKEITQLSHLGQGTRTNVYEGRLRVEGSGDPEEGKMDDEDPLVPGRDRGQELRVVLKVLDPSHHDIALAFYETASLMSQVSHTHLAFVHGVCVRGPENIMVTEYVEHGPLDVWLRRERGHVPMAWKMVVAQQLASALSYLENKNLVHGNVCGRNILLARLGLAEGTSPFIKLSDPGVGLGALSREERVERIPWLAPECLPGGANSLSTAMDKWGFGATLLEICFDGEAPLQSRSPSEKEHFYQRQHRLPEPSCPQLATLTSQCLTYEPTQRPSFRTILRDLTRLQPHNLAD

As for `CC(=O)Nc1cc2c(cn1)C1(CC1)CN2c1cc(C)nc(C(C)(C)F)n1` [Example 312, N-(1′-(2-(2-fluoropropan-2-yl)-6-methylpyrimidin-4-yl)-1′,2′-dihydrospiro[cyclopropane-1,3′-pyrrolo[3,2-c]pyridin]-6′-yl)acetamide], the figures for the IC50 in assay [1] and in assay [2] were ≤ 10 nM and 10 to 100 nM, respectively.
In the same order, the values of `COc1cccc(N2CC3(CC3)c3cnc(NC(C)=O)cc32)n1` [Example 313, N-(1′-(6-methoxypyridin-2-yl)-1′,2′-dihydrospiro[cyclopropane-1,3′-pyrrolo[3,2-c]pyridin]-6′-yl)acetamide] are 10 to 100 nM and ≥ 1000 nM.
On to `CCc1cc(N2CC3(CC3)c3cnc(NC(C)=O)cc32)nc(C)n1` [Example 314, N-(1′-(6-ethyl-2-methylpyrimidin-4-yl)-1′,2′-dihydrospiro[cyclopropane-1,3′-pyrrolo[3,2-c]pyridin]-6′-yl)acetamide], for which the values for the IC50 in assay [1] and in assay [2] were 10 to 100 nM and ≥ 1000 nM, respectively.
On to `COCC(F)(F)c1cc(C)cc(N2CC3(CC3)c3cnc(NC(C)=O)cc32)n1` [Example 315, N-(1′-(6-(1,1-difluoro-2-methoxyethyl)-4-methylpyridin-2-yl)-1′,2′-dihydrospiro[cyclopropane-1,3′-pyrrolo[3,2-c]pyridin]-6′-yl)acetamide trifluoroacetate], for which the concentration for half-maximal inhibition (IC50) was 10 to 100 nM in assay [1] and ≥ 1000 nM in assay [2].
In the same order, the values of `CC(=O)Nc1cc2c(cn1)C1(CC1)CN2c1cc(C)cc(C(F)(F)CF)n1` [Example 316, N-(1′-(4-methyl-6-(1,1,2-trifluoroethyl)pyridin-2-yl)-1′,2′-dihydrospiro[cyclopropane-1,3′-pyrrolo[3,2-c]pyridin]-6′-yl)acetamide trifluoroacetate] are ≤ 10 nM and 10 to 100 nM.
In the same order, the values of `COC1CC(c2nc(C)cc(N3CC4(CC4)c4cnc(NC(C)=O)cc43)n2)C1` (centres unmarked) [Example 317, N-(1′-(2-(3-methoxycyclobutyl)-6-methylpyrimidin-4-yl)-1′,2′-dihydrospiro[cyclopropane-1,3′-pyrrolo[3,2-c]pyridin]-6′-yl)acetamide] are ≤ 10 nM and 100 to 1000 nM.
Consider `CC(=O)Nc1cc2c(cn1)C1(CC1)CN2c1cc(C)nc(C23COC(C)(C2)C3)n1` [Example 318, N-(1′-(6-methyl-2-(1-methyl-2-oxabicyclo[2.1.1]hexan-4-yl)pyrimidin-4-yl)-1′,2′-dihydrospiro[cyclopropane-1,3′-pyrrolo[3,2-c]pyridin]-6′-yl)acetamide], for which the IC50 in assay [1] was 10 to 100 nM; in assay [2] it was ≥ 1000 nM.
In the case of `CC(=O)Nc1cc2c(cn1)C1(CC1)CN2c1cc(C)nc(CCS(C)(=O)=O)n1` [Example 319, N-(1′-(6-methyl-2-(2-(methylsulfonyl)ethyl)pyrimidin-4-yl)-1′,2′-dihydrospiro[cyclopropane-1,3′-pyrrolo[3,2-c]pyridin]-6′-yl)acetamide], the IC50 was 10 to 100 nM in assay [1] and ≥ 1000 nM in assay [2].
In the case of `CC(=O)Nc1cc2c(cn1)C1(CC1)CN2c1cc(C)nc(C23COC(C2)C3)n1` [Example 320, N-(1′-(2-(2-oxabicyclo[2.1.1]hexan-4-yl)-6-methylpyrimidin-4-yl)-1′,2′-dihydrospiro[cyclopropane-1,3′-pyrrolo[3,2-c]pyridin]-6′-yl)acetamide], the IC50 in assay [1] was ≤ 10 nM; in assay [2], 10 to 100 nM.
For `CCc1cc(N2CC3(CC3)c3cnc(NC(C)=O)cc32)nc(C2CCOC2)n1` (centres unmarked) [Example 321, N-(1′-(6-ethyl-2-(tetrahydrofuran-3-yl)pyrimidin-4-yl)-1′,2′-dihydrospiro[cyclopropane-1,3′-pyrrolo[3,2-c]pyridin]-6′-yl)acetamide trifluoroacetate], the concentration for half-maximal inhibition (IC50) is ≤ 10 nM in assay [1] and 10 to 100 nM in assay [2].
Turning to `COCC(F)(F)c1nccc(N2CC3(CC3)c3cnc(NC(C)=O)cc32)n1` [Example 323, N-(1′-(2-(1,1-difluoro-2-methoxyethyl)pyrimidin-4-yl)-1′,2′-dihydrospiro[cyclopropane-1,3′-pyrrolo[3,2-c]pyridin]-6′-yl)acetamide], the IC50 in assay [1] and in assay [2] was 100 to 1000 nM each time.
With `CCC(C)(O)CCc1cc(N2CC3(CC3)c3cnc(NC(C)=O)cc32)nc(C(C)(F)F)n1` (centres unmarked) [Example 324, N-(1′-(2-(1,1-difluoroethyl)-6-(3-hydroxy-3-methylpentyl)pyrimidin-4-yl)-1′,2′-dihydrospiro[cyclopropane-1,3′-pyrrolo[3,2-c]pyridin]-6′-yl)acetamide], the IC50 in assay [1] is ≤ 10 nM; in assay [2] it was 10 to 100 nM.
For `CC(=O)Nc1cc2c(cn1)C1(CC1)CN2c1cc(CCCOC(C)(C)C)nc(C(C)(F)F)n1` [Example 325, N-(1′-(6-(3-(tert-butoxy)propyl)-2-(1,1-difluoroethyl)pyrimidin-4-yl)-1′,2′-dihydrospiro[cyclopropane-1,3′-pyrrolo[3,2-c]pyridin]-6′-yl)acetamide] the same measures were ≤ 10 nM and 10 to 100 nM.
As to `COCCCc1cc(N2CC3(CC3)c3cnc(NC(C)=O)cc32)nc(C(C)(F)F)n1` [Example 326, N-(1′-(2-(1,1-difluoroethyl)-6-(3-methoxypropyl)pyrimidin-4-yl)-1′,2′-dihydrospiro[cyclopropane-1,3′-pyrrolo[3,2-c]pyridin]-6′-yl)acetamide], the IC50 is ≤ 10 nM in assay [1] and 10 to 100 nM in assay [2].
In the same order, the values of `CC(=O)Nc1cc2c(cn1)C1(CC1)CN2c1cc(CCC(C)(C)O)nc(C(C)(F)F)n1` [Example 327, N-(1′-(2-(1,1-difluoroethyl)-6-(3-hydroxy-3-methylbutyl)pyrimidin-4-yl)-1′,2′-dihydrospiro[cyclopropane-1,3′-pyrrolo[3,2-c]pyridin]-6′-yl)acetamide] are ≤ 10 nM and 10 to 100 nM.
On to `CCCCCc1cc(N2CC3(CC3)c3cnc(NC(C)=O)cc32)nc(C(C)(F)F)n1` [Example 328, N-(1′-(2-(1,1-difluoroethyl)-6-pentylpyrimidin-4-yl)-1′,2′-dihydrospiro[cyclopropane-1,3′-pyrrolo[3,2-c]pyridin]-6′-yl)acetamide], for which the IC50 in assay [1] is ≤ 10 nM; in assay [2], 10 to 100 nM.
As to `CCO/C=C\c1cc(N2CC3(CC3)c3cnc(NC(C)=O)cc32)nc(C(C)(F)F)n1` [Example 329, (Z)-N-(1′-(2-(1,1-difluoroethyl)-6-(2-ethoxyvinyl)pyrimidin-4-yl)-1′,2′-dihydrospiro[cyclopropane-1,3′-pyrrolo[3,2-c]pyridin]-6′-yl)acetamide], the IC50 was ≤ 10 nM in assay [1] and 10 to 100 nM in assay [2].
Regarding `CCOCCc1cc(N2CC3(CC3)c3cnc(NC(C)=O)cc32)nc(C(C)(F)F)n1` [Example 330, N-(1′-(2-(1,1-difluoroethyl)-6-(2-ethoxyethyl)pyrimidin-4-yl)-1′,2′-dihydrospiro[cyclopropane-1,3′-pyrrolo[3,2-c]pyridin]-6′-yl)acetamide trifluoroacetate], the IC50 in assay [1] is ≤ 10 nM; in assay [2], 10 to 100 nM.
Consider `CC(=O)Nc1cc2c(cn1)C1(CC1)CN2c1nc(C)cc(F)n1` [Example 331, N-(1′-(4-fluoro-6-methylpyrimidin-2-yl)-1′,2′-dihydrospiro[cyclopropane-1,3′-pyrrolo[3,2-c]pyridin]-6′-yl)acetamide trifluoroacetate], for which the half-maximal inhibitory concentration (IC50) in assay [1] is 100 to 1000 nM; in assay [2], ≥ 1000 nM.
